Laboratory results from patent US20250214991A1 (Oncopia Therapeutics, Inc. d/b/a/ SK Life Science Labs, priority 2022, published 2025).

Key:
[1] = target: CRBN/DDB1 (Homo sapiens (Human), UniProt Q96SW2); experiment: IC50 measurements for binding to CRBN/DDB1 (HTRF); settings: His tagged CRBN+DDB, Cy5-labeled Thalidomide probe, one hour
Outline: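 HTRF competition binding with 2 nM His-tagged CRBN-DDB1 complex, 60 nM Cy5-thalidomide probe and 0.4 nM anti-His Tb cryptate in 50 mM HEPES pH 7.5, 1 mM TCEP, 0.01% Brij-35, 50 mM NaCl, 0.1% BSA. Read after 1 h at room temperature; IC50 from four-parameter dose-response fit.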

[2] = target: IKZF2 (Homo sapiens (Human), UniProt Q96SW2+Q9UKS7); experiment: In vitro IKZF2 HiBit Assay (HEK293T Flp-in-HiBiT cells); format: cell-based; settings: HEK293T Flp-in-HiBiT cells, 6 hrs incubation; for DC50: read-out: IKZF2 HiBit DC50; for Dmax: HEK-293T, read-out: IKZF2 HiBit Dmax (%)
Chain of IKZF2 (Q9UKS7 whole entry): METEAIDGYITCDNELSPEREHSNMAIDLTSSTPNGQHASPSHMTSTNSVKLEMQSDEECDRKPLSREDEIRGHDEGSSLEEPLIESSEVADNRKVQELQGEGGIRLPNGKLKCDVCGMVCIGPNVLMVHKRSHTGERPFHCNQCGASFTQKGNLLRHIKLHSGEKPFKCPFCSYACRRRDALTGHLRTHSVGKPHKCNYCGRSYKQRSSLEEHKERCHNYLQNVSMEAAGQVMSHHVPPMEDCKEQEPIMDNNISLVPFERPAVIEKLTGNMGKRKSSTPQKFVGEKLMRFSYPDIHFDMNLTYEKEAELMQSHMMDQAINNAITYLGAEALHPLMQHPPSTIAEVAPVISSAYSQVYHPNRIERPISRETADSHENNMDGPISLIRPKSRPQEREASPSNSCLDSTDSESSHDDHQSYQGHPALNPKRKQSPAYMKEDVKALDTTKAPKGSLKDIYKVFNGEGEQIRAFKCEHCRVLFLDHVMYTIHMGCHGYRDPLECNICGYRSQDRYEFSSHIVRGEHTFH
Chain of IKZF2 (Q96SW2 whole entry): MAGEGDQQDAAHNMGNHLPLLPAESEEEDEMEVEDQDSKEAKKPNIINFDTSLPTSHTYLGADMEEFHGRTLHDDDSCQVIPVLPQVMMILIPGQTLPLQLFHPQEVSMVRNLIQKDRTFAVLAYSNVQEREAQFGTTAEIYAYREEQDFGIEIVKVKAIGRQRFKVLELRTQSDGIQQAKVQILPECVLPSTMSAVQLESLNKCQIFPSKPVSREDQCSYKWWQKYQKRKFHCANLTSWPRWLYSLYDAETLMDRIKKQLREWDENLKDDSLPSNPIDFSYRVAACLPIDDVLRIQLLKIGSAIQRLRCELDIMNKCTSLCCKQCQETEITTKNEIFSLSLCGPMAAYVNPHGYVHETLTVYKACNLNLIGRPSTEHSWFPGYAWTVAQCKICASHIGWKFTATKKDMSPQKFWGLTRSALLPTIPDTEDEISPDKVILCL
Chain of IKZF2 (Q16531 2-1140 partner): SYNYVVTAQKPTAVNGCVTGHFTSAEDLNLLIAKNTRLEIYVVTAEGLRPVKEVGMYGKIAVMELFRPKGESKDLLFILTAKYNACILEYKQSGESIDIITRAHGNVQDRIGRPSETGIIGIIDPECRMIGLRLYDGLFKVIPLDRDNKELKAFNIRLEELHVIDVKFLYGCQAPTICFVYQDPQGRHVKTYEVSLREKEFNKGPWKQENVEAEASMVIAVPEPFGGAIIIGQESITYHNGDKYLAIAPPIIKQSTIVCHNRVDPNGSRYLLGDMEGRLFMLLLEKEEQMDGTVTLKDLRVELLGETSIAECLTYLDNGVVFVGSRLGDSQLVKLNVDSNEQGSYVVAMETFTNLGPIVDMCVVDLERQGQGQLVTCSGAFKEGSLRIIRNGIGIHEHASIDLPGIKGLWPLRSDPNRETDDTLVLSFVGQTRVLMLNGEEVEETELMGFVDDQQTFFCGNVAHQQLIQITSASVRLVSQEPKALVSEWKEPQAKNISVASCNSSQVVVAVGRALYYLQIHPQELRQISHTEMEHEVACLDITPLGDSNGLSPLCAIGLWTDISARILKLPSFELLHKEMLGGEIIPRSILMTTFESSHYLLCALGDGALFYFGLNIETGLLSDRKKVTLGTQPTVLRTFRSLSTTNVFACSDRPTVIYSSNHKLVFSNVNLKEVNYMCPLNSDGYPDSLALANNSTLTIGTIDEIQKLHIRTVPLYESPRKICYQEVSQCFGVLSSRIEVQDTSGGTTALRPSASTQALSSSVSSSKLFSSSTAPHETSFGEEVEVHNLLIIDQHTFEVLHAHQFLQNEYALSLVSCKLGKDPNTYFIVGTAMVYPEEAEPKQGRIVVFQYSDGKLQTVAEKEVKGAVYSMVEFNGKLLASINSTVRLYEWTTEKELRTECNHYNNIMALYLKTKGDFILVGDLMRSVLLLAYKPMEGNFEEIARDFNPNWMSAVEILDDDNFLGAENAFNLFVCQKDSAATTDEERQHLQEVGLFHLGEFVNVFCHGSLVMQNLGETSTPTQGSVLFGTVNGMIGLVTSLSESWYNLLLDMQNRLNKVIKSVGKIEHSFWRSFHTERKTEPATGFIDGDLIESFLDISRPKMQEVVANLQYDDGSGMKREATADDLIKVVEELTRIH
Outline: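 HEK293T Flp-in cells carrying an endogenous N-terminal HiBiT tag on IKZF2 were exposed to compound for 6 h at 0.1% DMSO. The dilution series was 11 doses at 3-fold, diluted from 1 mM. Nano-Glo HiBiT lytic luminescence, normalized to DMSO, gave DC50 for 50% degradation and Dmax across the concentration range, both reported in letter bins.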

[3] = target: IKZF1 (Homo sapiens (Human), UniProt Q13422+Q96SW2); experiment: In vitro IKZF1 HiBit Assay (HEK293T Flp-in-HiBiT-IKZF1 stable cell line); format: cell-based; settings: HEK293T Flp-in-HiBiT-IKZF1 stable cell line, 6 hrs incubation; for DC50: read-out: IKZF1 HiBit DC50; for Dmax: HEK-293T, read-out: IKZF1 HiBit Dmax (%)
Chain of IKZF1 (Q13422 whole entry): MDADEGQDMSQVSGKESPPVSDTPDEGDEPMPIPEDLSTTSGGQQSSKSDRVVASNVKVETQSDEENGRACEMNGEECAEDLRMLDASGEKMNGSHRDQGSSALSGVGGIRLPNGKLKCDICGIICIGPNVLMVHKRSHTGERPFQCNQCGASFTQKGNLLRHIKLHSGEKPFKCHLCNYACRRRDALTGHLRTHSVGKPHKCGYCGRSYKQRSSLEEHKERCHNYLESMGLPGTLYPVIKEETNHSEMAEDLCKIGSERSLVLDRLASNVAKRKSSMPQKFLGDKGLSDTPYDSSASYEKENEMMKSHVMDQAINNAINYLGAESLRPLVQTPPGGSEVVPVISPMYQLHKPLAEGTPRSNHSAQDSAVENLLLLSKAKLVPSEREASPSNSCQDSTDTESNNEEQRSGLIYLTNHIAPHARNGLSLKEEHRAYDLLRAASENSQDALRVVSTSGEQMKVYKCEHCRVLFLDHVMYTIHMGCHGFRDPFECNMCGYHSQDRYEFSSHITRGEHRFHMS
Chain of IKZF1 (Q96SW2 whole entry): as the sequence (Q96SW2 whole entry) above
Chain of IKZF1 (Q16531 2-1140 partner): as the sequence (Q16531 2-1140 partner) above
Outline: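 HEK293T Flp-in cells carrying N-terminal HiBiT-tagged IKZF1 were exposed to compound (0.1% DMSO) for 6 h at 3000 cells/well. HiBiT luminescence was read after lytic LgBiT detection. DC50 and Dmax were taken from DMSO-normalized dose-response curves.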

Chain of CRBN/DDB1 (Q96SW2 whole entry, species assumed): as the sequence (Q96SW2 whole entry) above
Chain of CRBN/DDB1 (Q16531 whole entry partner, species assumed): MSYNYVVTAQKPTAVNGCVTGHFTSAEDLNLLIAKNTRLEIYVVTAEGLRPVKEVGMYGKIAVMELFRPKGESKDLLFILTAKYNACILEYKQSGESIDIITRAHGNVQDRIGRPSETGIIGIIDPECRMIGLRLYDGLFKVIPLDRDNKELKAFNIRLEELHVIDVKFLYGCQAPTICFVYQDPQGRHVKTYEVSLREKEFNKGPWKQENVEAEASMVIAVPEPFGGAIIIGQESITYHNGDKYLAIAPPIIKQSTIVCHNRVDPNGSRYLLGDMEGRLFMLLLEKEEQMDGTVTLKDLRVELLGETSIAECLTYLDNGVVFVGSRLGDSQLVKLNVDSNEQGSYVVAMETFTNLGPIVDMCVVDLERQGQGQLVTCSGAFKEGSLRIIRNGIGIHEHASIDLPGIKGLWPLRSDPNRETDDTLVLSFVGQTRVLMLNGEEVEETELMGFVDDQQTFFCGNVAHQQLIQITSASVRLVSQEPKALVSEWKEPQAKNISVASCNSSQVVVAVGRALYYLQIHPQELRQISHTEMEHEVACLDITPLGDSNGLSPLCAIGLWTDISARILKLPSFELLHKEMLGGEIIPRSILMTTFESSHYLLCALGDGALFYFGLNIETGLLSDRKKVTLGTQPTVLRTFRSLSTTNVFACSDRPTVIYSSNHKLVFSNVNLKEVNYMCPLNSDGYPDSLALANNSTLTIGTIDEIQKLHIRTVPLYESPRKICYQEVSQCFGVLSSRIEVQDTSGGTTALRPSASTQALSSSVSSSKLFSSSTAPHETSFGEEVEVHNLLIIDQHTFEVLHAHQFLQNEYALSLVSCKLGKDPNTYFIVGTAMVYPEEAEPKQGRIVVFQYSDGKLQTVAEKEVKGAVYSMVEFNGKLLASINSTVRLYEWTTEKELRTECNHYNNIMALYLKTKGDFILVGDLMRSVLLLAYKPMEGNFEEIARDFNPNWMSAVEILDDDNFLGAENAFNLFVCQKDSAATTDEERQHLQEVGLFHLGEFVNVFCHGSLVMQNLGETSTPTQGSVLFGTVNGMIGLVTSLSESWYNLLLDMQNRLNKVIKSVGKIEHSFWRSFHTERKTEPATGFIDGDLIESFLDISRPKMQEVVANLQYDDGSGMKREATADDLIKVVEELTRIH

Row | Structure (SMILES) | IC50 [1] | DC50 [2] | Dmax [2] | DC50 [3] | Dmax [3]
1 | Cc1nc2nc(-c3ccc4c(c3)CN(C3CCC(=O)NC3=O)C4=O)cc(CN3CCCC3)c2o1 (stereo not shown) [Example 194, 3-(5-(2-methyl-7-(pyrrolidin-1-ylmethyl)oxazolo[4,5-b]pyridin-5-yl)-1-oxoisoindolin-2-yl) piperidine-2,6-dione] | 1000 to 5000 nM | 1 to 10 nM | > 80% | > 10000 nM | < 20%
2 | Cn1ccc2c(CN3CCC(n4ccnc4)CC3)cc(-c3ccc4c(c3)CN(C3CCC(=O)NC3=O)C4=O)nc21 (stereo not shown) [Example 115, 3-(5-(4-((4-(1HIimidazol-1-yl)piperidin-1-yl)methyl)-1-methyl-1H-pyrrolo[2,3-b]pyridin-6-yl)-1-oxoisoindolin-2-yl) piperidine-2,6-dione] | 500 to 1000 nM | 10 to 100 nM | 60 to 80% | > 10000 nM | < 20%
3 | N#CC1CCN(Cc2cc(-c3ccc4c(c3)CN(C3CCC(=O)NC3=O)C4=O)nc3c2ccn3C2COC2)CC1 (stereo not shown) [Example 192, 1-((6-(2-(2,6-dioxopiperidin-3-yl)-1-oxoisoindolin-5-yl)-1-(oxetan-3-yl)-1H-pyrrolo[2,3-b]pyridin-4-yl)methyl) piperidine-4-carbonitrile] | 1000 to 5000 nM | 10 to 100 nM | 60 to 80% | > 10000 nM | < 20%
4 | O=C1CCC(N2Cc3cc(-c4cc(CN5CCC(F)C5)c5cc[nH]c5n4)ccc3C2=O)C(=O)N1 (stereo not shown) [Example 127, 3-(5-(4-((3-fluoropyrrolidin-1-yl)methyl)-1H-pyrrolo[2,3-b]pyridin-6-yl)-1-oxoisoindolin-2-yl) piperidine-2,6-dione] | 100 to 500 nM | 1 to 10 nM | > 80% | 100 to 1000 nM | 20 to 40%
5 | O=C1CCC(N2Cc3cc(-c4cc(CN5CCCC5)c5c(n4)C(=O)NC5)ccc3C2=O)C(=O)N1 (stereo not shown) [Example 233, 3-(1-ox0-5-(7-oxo-4-(pyrrolidin-1-ylmethyl)-6,7-dihydro-5H-pyrrolo[3,4-b]pyridin-2-yl)isoindolin-2-yl) piperidine-2,6-dione] | 1000 to 5000 nM | > 10000 nM | < 20% | > 10000 nM | < 20%
6 | Cn1ccc2c(CN3CCC(C#N)CC3)cc(-c3ccc4c(c3)CN(C3CCC(=O)NC3=O)C4=O)nc21 (stereo not shown) [Example 309, 1-((6-(2-(2,6-dioxopiperidin-3-yl)-1-oxoisoindolin-5-yl)-1-methyl-1H-pyrrolo[2,3-b]pyridin-4-yl)methyl) piperidine-4-carbonitrile] | 1000 to 5000 nM | 1 to 10 nM | > 80% | 1000 to 10000 nM | 20 to 40%
7 | COCC1CCCN1Cc1cc(-c2ccc3c(c2)CN(C2CCC(=O)NC2=O)C3=O)nc2c1ccn2C (stereo not shown) [Example 106, 3-(5-(4-((2-(methoxymethyl)pyrrolidin-1-yl)methyl)-1-methyl-1H-pyrrolo[2,3-b]pyridin-6-yl)-1-oxoisoindolin-2-yl) piperidine-2,6-dione] | 100 to 500 nM | 1 to 10 nM | > 80% | > 10000 nM | < 20%
8 | Cn1ccc2nc(-c3ccc4c(c3)CN(C3CCC(=O)NC3=O)C4=O)cc(CN3CCCC3)c21 (stereo not shown) [Example 77, 3-(5-(1-methyl-7-(pyrrolidin-1-ylmethyl)-1H-pyrrolo[3,2-b]pyridin-5-yl)-1-oxoisoindolin-2-yl) piperidine-2,6-dione] | 1000 to 5000 nM | < 1 nM | > 80% | > 10000 nM | 20 to 40%
9 | Cn1ccc2c(Cn3cnc4ccccc43)cc(-c3ccc4c(c3)CN(C3CCC(=O)NC3=O)C4=O)nc21 (stereo not shown) [Example 97, 3-(5-(4-((1H-benzo[d]imidazol-1-yl)methyl)-1-methyl-1H-pyrrolo[2,3-b]pyridin-6-yl)-1-oxoisoindolin-2-yl) piperidine-2,6-dione] | < 100 nM | 10 to 100 nM | 40 to 60% | > 10000 nM | < 20%
10 | CN(C)C(=O)CC1CCN(Cc2cc(-c3ccc4c(c3)CN(C3CCC(=O)NC3=O)C4=O)nc3[nH]ccc23)C1 (stereo not shown) [Example 167, 2-(1-((6-(2-(2,6-dioxopiperidin-3-yl)-1-oxoisoindolin-5-yl)-1H-pyrrolo[2,3-b]pyridin-4-yl)methyl)pyrrolidin-3-yl)-N,N-dimethylacetamide] | 100 to 500 nM | 10 to 100 nM | 60 to 80% | 100 to 1000 nM | 20 to 40%
11 | O=C1CCC(N2Cc3cc(-c4cc(CN5CCC(F)C5)c5ccn(C6COC6)c5n4)ccc3C2=O)C(=O)N1 (stereo not shown) [Example 157, 3-(5-(4-((3-fluoropyrrolidin-1-yl)methyl)-1-(oxetan-3-yl)-1H-pyrrolo[2,3-b]pyridin-6-yl)-1-oxoisoindolin-2-yl) piperidine-2,6-dione] | 500 to 1000 nM | 1 to 10 nM | > 80% | > 10000 nM | < 20%
12 | Cn1ccc2c(CN3CCc4ccccc4C3)cc(-c3ccc4c(c3)CN(C3CCC(=O)NC3=O)C4=O)nc21 (stereo not shown) [Example 65, 3-(5-(4-((3,4-dihydroisoquinolin-2 (1H)-yl)methyl)-1-methyl-1H-pyrrolo[2,3-b]pyridin-6-yl)-1-oxoisoindolin-2-yl) piperidine-2,6-dione] | 100 to 500 nM | 1 to 10 nM | > 80% | > 10000 nM | 20 to 40%
13 | Cn1ccc2c(CN3CCC4(CC3)COC4)cc(-c3ccc4c(c3)CN(C3CCC(=O)NC3=O)C4=O)nc21 (stereo not shown) [Example 73, 3-(5-(4-((2-oxa-7-azaspiro[3.5]nonan-7-yl)methyl)-1-methyl-1H-pyrrolo[2,3-b]pyridin-6-yl)-1-oxoisoindolin-2-yl) piperidine-2,6-dione] | 100 to 500 nM | 1 to 10 nM | > 80% | > 10000 nM | 20 to 40%
14 | Cn1ccc2c(CN3CCCC3)cc(-c3ccc4c(c3F)CN(C3CCC(=O)NC3=O)C4=O)nc21 (stereo not shown) [Example 75, 3-(4-fluoro-5-(1-methyl-4-(pyrrolidin-1-ylmethyl)-1H-pyrrolo[2,3-b]pyridin-6-yl)-1-oxoisoindolin-2-yl) piperidine-2,6-dione] | 100 to 500 nM | < 1 nM | > 80% | > 10000 nM | 20 to 40%
15 | Nc1n[nH]c2c(CN3CCC(O)C3)cc(-c3ccc4c(c3)CN(C3CCC(=O)NC3=O)C4=O)nc12 (stereo not shown) [Example 196, 3-(5-(3-amino-7-((3-hydroxypyrrolidin-1-yl)methyl)-1H-pyrazolo[4,3-b]pyridin-5-yl)-1-oxoisoindolin-2-yl) piperidine-2,6-dione] | 1000 to 5000 nM | 100 to 1000 nM | 40 to 60% | > 10000 nM | < 20%
16 | CC1CCN(Cc2cc(-c3ccc4c(c3)CN(C3CCC(=O)NC3=O)C4=O)nc3c2ccn3C)CC1 (stereo not shown) [Example 81, 3-(5-(1-methyl-4-((4-methylpiperidin-1-yl)methyl)-1H-pyrrolo[2,3-b]pyridin-6-yl)-1-oxoisoindolin-2-yl) piperidine-2,6-dione] | 5000 to 10000 nM | < 1 nM | > 80% | 10 to 100 nM | 40 to 60%
17 | CC(C)Oc1n[nH]c2c(CN3CCCC3)cc(-c3ccc4c(c3)CN(C3CCC(=O)NC3=O)C4=O)nc12 (stereo not shown) [Example 238, 3-(5-(3-isopropoxy-7-(pyrrolidin-1-ylmethyl)-1H-pyrazolo[4,3-b]pyridin-5-yl)-1-oxoisoindolin-2-yl) piperidine-2,6-dione] | 1000 to 5000 nM | < 1 nM | 60 to 80% | > 10000 nM | < 20%
18 | Cn1ccc2c(CN3CCC4(CCCC4)CC3)cc(-c3ccc4c(c3)CN(C3CCC(=O)NC3=O)C4=O)nc21 (stereo not shown) [Example 103, 3-(5-(4-((8-azaspiro[4.5]decan-8-yl)methyl)-1-methyl-1H-pyrrolo[2,3-b]pyridin-6-yl)-1-oxoisoindolin-2-yl) piperidine-2,6-dio] | 100 to 500 nM | 1 to 10 nM | > 80% | 10 to 100 nM | 20 to 40%
19 | O=C1CCC(N2Cc3cc(-c4cc(CN5CCCC5)c5ccn(Cc6ccccc6)c5n4)ccc3C2=O)C(=O)N1 (stereo not shown) [Example 147, 3-(5-(1-benzyl-4-(pyrrolidin-1-ylmethyl)-1H-pyrrolo[2,3-b]pyridin-6-yl)-1-oxoisoindolin-2-yl) piperidine-2,6-dione] | 100 to 500 nM | 1 to 10 nM | 40 to 60% | > 10000 nM | < 20%
20 | O=C1CCC(N2Cc3cc(-c4cc(CN5CCCC5)c5ncccc5n4)ccc3C2=O)C(=O)N1 (stereo not shown) [Example 104, 3-(1-oxo-5-(4-(pyrrolidin-1-ylmethyl)-1,5-naphthyridin-2-yl)isoindolin-2-yl) piperidine-2,6-dione] | 500 to 1000 nM | 1 to 10 nM | > 80% | > 10000 nM | 20 to 40%
